Test results taken from patent publication US20160271263A1 (Novo Nordisk A/S, priority 2010, published 2016).
Numbered stars: 1 amine (or outer) side, 2 acyl side, 3 side chain; on linkers, the order of the positions; unused ones are H or OH. Square brackets hold non-standard residues; d marks the D form. Side chains are listed from the residue outwards. Peptide text beside a SMILES is read from it. * marks the point of attachment. C18 diacid = O=C(O)CCCCCCCCCCCCCCCCC(=O)*; γGlu = O=C(O)[C@H](CCC(=O)[*:2])N[*:1]; AEEA = NCCOCCOCC(=O)O; Aib = CC(C)(N)C(=O)O

Biological target: glucagon receptor (Homo sapiens, UniProt P47871)
Assay: cell-based

Sequence of glucagon receptor (P47871 26-477): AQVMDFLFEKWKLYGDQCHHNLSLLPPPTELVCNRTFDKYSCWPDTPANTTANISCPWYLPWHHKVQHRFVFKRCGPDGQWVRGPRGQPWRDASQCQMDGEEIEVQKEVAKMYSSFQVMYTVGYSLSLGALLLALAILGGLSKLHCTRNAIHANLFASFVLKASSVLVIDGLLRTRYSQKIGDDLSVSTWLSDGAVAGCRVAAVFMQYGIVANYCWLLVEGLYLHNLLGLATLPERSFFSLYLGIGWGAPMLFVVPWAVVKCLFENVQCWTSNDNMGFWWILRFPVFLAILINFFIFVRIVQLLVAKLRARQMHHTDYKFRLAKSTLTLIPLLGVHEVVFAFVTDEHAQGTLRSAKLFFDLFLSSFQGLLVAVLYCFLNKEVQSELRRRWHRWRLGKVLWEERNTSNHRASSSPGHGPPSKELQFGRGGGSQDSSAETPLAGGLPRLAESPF

Row | EC50 [nM] | Structure (SMILES)
1 | 0.048 | CC(C)C[C@H](NC(=O)[C@H](Cc1ccc(O)cc1)NC(=O)[C@H](CCCCN)NC(=O)[C@H](CO)NC(=O)[C@H](Cc1ccc(O)cc1)NC(=O)[C@H](CC(=O)O)NC(=O)[C@H](CO)NC(=O)[C@@H](NC(=O)[C@H](Cc1ccccc1)NC(=O)[C@@H](NC(=O)CNC(=O)[C@H](CCC(N)=O)NC(=O)[C@H](CO)NC(=O)[C@@H](N)Cc1c[nH]cn1)[C@@H](C)O)[C@@H](C)O)C(=O)N[C@@H](CC(=O)O)C(=O)N[C@@H](CCC(=O)O)C(=O)N[C@@H](CCCCN)C(=O)N[C@@H](C)C(=O)N[C@@H](C)C(=O)N[C@@H](CCC(N)=O)C(=O)N[C@@H](CCC(=O)O)C(=O)N[C@@H](Cc1ccccc1)C(=O)N[C@H](C(=O)N[C@@H](CCCCNC(=O)COCCOCCNC(=O)COCCOCCNC(=O)CC[C@H](NC(=O)CCCCCCCCCCCCCCCCC(=O)O)C(=O)O)C(=O)N[C@@H](Cc1c[nH]c2ccccc12)C(=O)N[C@@H](CC(C)C)C(=O)N[C@@H](CC(C)C)C(=O)N[C@@H](CC(N)=O)C(=O)N[C@H](C(N)=O)[C@@H](C)O)C(C)C [Example 36, N^ε24-([2-[2-[2-[[2-[2-[2-[[(4S)-5-hydroxy-4-[(18-hydroxy-18-oxooctadecanoyl)amino]-5-oxopentanoyl]amino]ethoxy]ethoxy]acetyl]amino]ethoxy]ethoxy]acetyl])[Glu^16, Lys^17, Ala^18,Glu^21, Lys^24, Leu^27]Glucagon peptide amide] (H-HSQGTFTSDYSKYLDEKAAQEFVK([AEEA-AEEA-γGlu-C18 diacid])WLLNT-NH2; N-terminus assumed)
2 | 0.007 | CC(C)C[C@H](NC(=O)[C@H](Cc1ccc(O)cc1)NC(=O)[C@H](CCCCN)NC(=O)[C@H](CO)NC(=O)[C@H](Cc1ccc(O)cc1)NC(=O)[C@H](CC(=O)O)NC(=O)[C@H](CO)NC(=O)[C@@H](NC(=O)[C@H](Cc1ccccc1)NC(=O)[C@@H](NC(=O)CNC(=O)[C@H](CCC(N)=O)NC(=O)C(C)(C)NC(=O)[C@@H](N)Cc1c[nH]cn1)[C@@H](C)O)[C@@H](C)O)C(=O)N[C@@H](CC(=O)O)C(=O)N[C@@H](CCCCNC(=O)COCCOCCNC(=O)COCCOCCNC(=O)CC[C@H](NC(=O)CCCCCCCCCCCCCCCCC(=O)O)C(=O)O)C(=O)N[C@@H](CCCCN)C(=O)N[C@@H](CCCNC(=N)N)C(=O)N[C@@H](C)C(=O)N[C@@H](CCC(N)=O)C(=O)N[C@@H](CCC(=O)O)C(=O)N[C@@H](Cc1ccccc1)C(=O)N[C@H](C(=O)N[C@@H](CCC(N)=O)C(=O)N[C@@H](Cc1c[nH]c2ccccc12)C(=O)N[C@@H](CC(C)C)C(=O)N[C@@H](CC(C)C)C(=O)N[C@@H](CC(N)=O)C(=O)N[C@H](C(N)=O)[C@@H](C)O)C(C)C [Example 39, N^ε16-([2-[2-[2-[[2-[2-[2-[[(4S)-5-hydroxy-4-[(18-hydroxy-18-oxooctadecanoyl)amino]-5-oxopentanoyl]amino]ethoxy]ethoxy]acetyl]amino]ethoxy]ethoxy]acetyl]) [Aib^2, Lys^16, Lys^17, Glu^21,Leu^27] Glucagon peptide amide] (H-H[Aib]QGTFTSDYSKYLDK([AEEA-AEEA-γGlu-C18 diacid])KRAQEFVQWLLNT-NH2; N-terminus assumed)
